Measured values reported in US20070072903A1, “Altering the concentration of intracellular agents by p2x7 receptor modulation” (priority 2003, published 2007).

T1: P2X7 receptor (Rattus norvegicus, UniProt Q64663)
T1 construct: expressed in transfected cells; transiently co-transfected with MDR1 cDNA
T1 sequence (Q64663 1-595): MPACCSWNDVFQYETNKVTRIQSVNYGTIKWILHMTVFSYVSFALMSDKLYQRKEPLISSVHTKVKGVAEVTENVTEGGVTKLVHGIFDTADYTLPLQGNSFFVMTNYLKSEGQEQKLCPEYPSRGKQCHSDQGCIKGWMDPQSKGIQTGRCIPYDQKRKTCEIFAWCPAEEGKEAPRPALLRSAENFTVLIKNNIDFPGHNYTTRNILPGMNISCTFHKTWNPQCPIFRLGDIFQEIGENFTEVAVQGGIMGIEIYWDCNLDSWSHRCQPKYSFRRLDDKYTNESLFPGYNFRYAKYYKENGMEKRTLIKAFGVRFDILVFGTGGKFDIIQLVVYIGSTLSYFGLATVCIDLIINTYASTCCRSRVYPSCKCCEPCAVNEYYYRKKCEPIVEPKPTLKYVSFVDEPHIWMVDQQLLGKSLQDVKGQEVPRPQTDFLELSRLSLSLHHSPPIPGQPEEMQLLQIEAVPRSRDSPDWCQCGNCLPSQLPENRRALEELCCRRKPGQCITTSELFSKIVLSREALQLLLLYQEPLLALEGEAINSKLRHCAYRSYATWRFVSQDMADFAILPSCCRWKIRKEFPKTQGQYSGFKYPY

T2: P2X7 receptor (Mus musculus, UniProt Q9Z1M0)
T2 construct: Murine mesenteric lymph nodes (10^7/ml) were disaggregated in DMEM; from tissue; host or cells: murine mesenteric lymph node lymphocytes (CD4+, CD8+ T cells, B cells)
T2 sequence (Q9Z1M0 1-595): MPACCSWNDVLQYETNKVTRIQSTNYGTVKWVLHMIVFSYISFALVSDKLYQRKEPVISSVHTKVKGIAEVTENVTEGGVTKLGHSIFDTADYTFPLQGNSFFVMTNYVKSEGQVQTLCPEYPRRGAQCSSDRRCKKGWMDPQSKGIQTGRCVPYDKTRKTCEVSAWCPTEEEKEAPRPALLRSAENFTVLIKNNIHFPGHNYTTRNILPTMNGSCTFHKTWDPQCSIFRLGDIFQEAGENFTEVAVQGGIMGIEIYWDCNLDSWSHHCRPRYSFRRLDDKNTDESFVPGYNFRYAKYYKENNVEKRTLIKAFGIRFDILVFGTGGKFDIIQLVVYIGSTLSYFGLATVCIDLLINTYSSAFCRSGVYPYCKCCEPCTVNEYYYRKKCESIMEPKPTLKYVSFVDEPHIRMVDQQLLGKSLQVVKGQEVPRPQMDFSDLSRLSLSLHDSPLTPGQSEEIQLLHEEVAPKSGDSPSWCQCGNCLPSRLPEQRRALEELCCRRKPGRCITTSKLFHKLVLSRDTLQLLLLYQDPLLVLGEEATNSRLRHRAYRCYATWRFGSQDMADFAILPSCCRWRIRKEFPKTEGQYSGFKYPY


Legend:
[1] = injected into the hindpaw of rats at 100 nmol/50 μl; cited from earlier work
[2] = test system: mdr1a/b-deficient CD4+ and CD8+ T cells; assay: BODIPY-taxol uptake in mdr1a/b-deficient T cells; format: cell-based, mouse; conditions: 175 μM BzATP
Experimental: (§1) To measure drug uptake the following fluorochromes were used (from Molecular Probes, Leiden, Netherlands, unless stated): 0.2 μM BODIPY-taxol (BT), 0.25 μM Rh123, 0.2 μM mitoxantrone (Sigma). PS exposure was monitored simultaneously in the same population of cells by increased binding of annexin V as follows. Cells were equilibrated with annexin V^FITC, annexin V^PE, or annexin V^CY5 (AV—Becton Dickinson, Cailf.) together with propidium iodide (PI) for four minutes, and analysed by flow cytometry on a FACScalibur machine using CellQuest software (Becton Dickinson, Cailf.). Baseline fluorescence was established for approximately one minute prior to addition of 150 μM (unless otherwise stated) 2′-3′-O-(4-benzoylbenzoyl)-adenosine 5′-triphosphate (BzATP, Sigma). Cells were monitored for BT uptake or PS exposure continuously in real time for up to 15 minutes, as indicated. Continuous line graphs of changes in annexin V binding and fluorochrome uptake were plotted using FCSPress software (FCSPress.com, Cambridge, UK).
Mitoxantrone (Mx) or Mx plus BzATP, were added as indicted by arrows. Mitoxantrone uptake was measured as an increase in mean (±S.E.) fluorescence (FL-4 channel). […] BODIPY-taxol uptake was measured as an increase in mean (±S.E.) fluorescence (FL-1 channel). […] Only the responses of live cells (i.e. those excluding PI) were subsequently analysed.

P-gp [3] = assay: BODIPY-taxol uptake in HEK 293 cells with or without P2X7, transiently transfected with MDR1; format: cell-based; conditions: HEK 293 cells expressing both P-gp and P2X7 receptor
Experimental: To measure drug uptake the following fluorochromes were used (from Molecular Probes, Leiden, Netherlands, unless stated): 0.2 μM BODIPY-taxol (BT), 0.25 μM Rh123, 0.2 μM mitoxantrone (Sigma). PS exposure was monitored simultaneously in the same population of cells by increased binding of annexin V as follows. Cells were equilibrated with annexin V^FITC, annexin V^PE, or annexin V^CY5 (AV—Becton Dickinson, Cailf.) together with propidium iodide (PI) for four minutes, and analysed by flow cytometry on a FACScalibur machine using CellQuest software (Becton Dickinson, Cailf.). […] Cells were monitored for BT uptake or PS exposure continuously in real time for up to 15 minutes, as indicated. […]

P-gp [4] = assay: BODIPY-taxol uptake in mixed mdr1a/b-deficient and parental CD8+ lymphocytes; format: cell-based, mouse; conditions: mdr-deficient versus wild type CD8+ lymphocytes
Source text: Mice were between 6 and 14 weeks of age. When experiments utilised FVB.mdr1a/b^−/− mice, age-matched FVB mice were used.
In a further experiment, lymphocytes from mdr1a/b-deficient or parental mice (mdr1a/b^+/+) were labelled with anti-CD8^PE and anti-CD8^PERCP antibodies, respectively (to discriminate between CD8^+ cells from each mouse during subsequent analysis). […]

P-gp [5] = assay: BODIPY-taxol uptake in NIH3T3-MDR and parental NIH3T3 cells, continuous FACS analysis; format: cell-based, mouse; conditions: 175 μM BzATP, which lack the P2X7 receptor
Experimental: To measure drug uptake the following fluorochromes were used (from Molecular Probes, Leiden, Netherlands, unless stated): 0.2 μM BODIPY-taxol (BT), 0.25 μM Rh123, 0.2 μM mitoxantrone (Sigma). […] Baseline fluorescence was established for approximately one minute prior to addition of 150 μM (unless otherwise stated) 2′-3′-O-(4-benzoylbenzoyl)-adenosine 5′-triphosphate (BzATP, Sigma). Cells were monitored for BT uptake or PS exposure continuously in real time for up to 15 minutes, as indicated.
BODIPY-taxol (BT) and 175 μM BzATP were added to NIH3T3-MDR and parental NIH3T3 cells at times indicated by arrows. BT uptake was monitored by continuous FACS analysis, as an increase in fluorescence as a function of time.

P-gp [6] = assay: Rh123 uptake (P-gp activity) in murine lymphocytes, real-time flow cytometry; format: cell-based, mouse; conditions: 0.25 μM Rh123, 150 μM BzATP; CD4+, CD8+ and B cells
Source text: Murine mesenteric lymph nodes (10^7/ml) were disaggregated in DMEM. To discriminate between different lymphocyte subsets, cells were stained with CD4^APC, CD4^CYCHROME, CD4^PE, CD4^FITC, CD8^APC, CD8^PE, CD8^PERCP, CD8^FITC, B220^APC (Becton Dickinson, Cailf.) antibodies as indicated. The fluorophore on antibodies used to identify CD4^+ and CD8^+T cells was varied in some experiments to avoid overlap between emission spectra of the antibody-conjugated fluorochromes and fluorescent transport substrates. Cells were washed with DMEM and analysed by flow cytometry (CellQuest software—Becton Dickinson). Live cells were gated by eye on the basis of forward scatter and side scatter. Lymphocytes lacking CD4 and CD8 were defined as B cells.
Lymphocytes were labelled with anti-CD4^CYCHROME and anti-CD8^APC antibodies to discriminate between CD4^+T cells, CD8^+T cells and B cells (CD4^− CD8^−). The lymphocytes were incubated with annexin V^PE, and then 0.25 μM Rh123 and 150 μM BzATP were added sequentially (as indicated in the Figures by arrows).

P2X7 receptor [7] = format: cell-based; conditions: HEK 293 cells expressing P-gp but lacking P2X7 receptors
Experimental: (§2) NIH 3T3 cells stably transfected with the human MDR1 gene (Ueda et al, 1987 Proc. Natl. Acad. Sci. USA 84, 3004-3008) were a gift from Michael Gottesman (NIH, Bethesda) and were maintained in 1 μg/ml colchicine in Dulbecco's modified Eagle's medium (DMEM—Sigma). HEK 293 cells stably transfected with rP2X7 have been described elsewhere (Wilson et al, 2002 J. Biol. Chem. 277, 34017-34023). Transient transfection of HEK293 cells was performed using polyethyleneimine (Sigma), as described previously (Dixon et al, 2000 Hum. Mol. Genet. 9, 1209-1217). pMDR1-wt, which encodes wild-type P-gp, has also been described previously (Blott et al, 1999 EMBO J. 18, 6800-6808). Expression of the MDR1 gene product, P-gp, on transfected cells was determined by labelling of cells with UIC2^PE in the presence of cyclosporine A (Sigma), as described by Mechetner et al, (1997 Proc. Natl. Acad. Sci. 94, 12908-12913).
(§3) To measure drug uptake the following fluorochromes were used (from Molecular Probes, Leiden, Netherlands, unless stated): 0.2 μM BODIPY-taxol (BT), 0.25 μM Rh123, 0.2 μM mitoxantrone (Sigma). PS exposure was monitored simultaneously in the same population of cells by increased binding of annexin V as follows. […] Cells were monitored for BT uptake or PS exposure continuously in real time for up to 15 minutes, as indicated. […]

P2X7 receptor [8] = target: T1, P2X7 receptor; format: cell-based; conditions: HEK 293 cells expressing both P-gp and P2X7 receptor
Experimental: as §2, §3

[9] = test system: plasma membrane permeability; assay: Propidium uptake after BzATP stimulation (non-specific membrane permeability); format: cell-based, mouse; conditions: BzATP-mediated stimulation; data omitted for brevity
[10] = test system: breast cancer resistance protein (abcg2); assay: Mitoxantrone uptake in mdr1a/b-deficient lymphocytes; format: cell-based, mouse; conditions: 0.2 μM mitoxantrone
P2X7-HEK 293 cells = assay: BODIPY-taxol uptake in HEK 293 and P2X7-HEK 293 cells; format: cell-based; conditions: 150 μM BzATP
Experimental: as §2, §3

P2X7 receptor [11] = target: T2, P2X7 receptor; assay: PS translocation (annexin V binding) in murine lymphocytes, real-time flow cytometry; format: cell-based
Source text: Murine mesenteric lymph nodes (10^7/ml) were disaggregated in DMEM. To discriminate between different lymphocyte subsets, cells were stained with CD4^APC, CD4^CYCHROME, CD4^PE, CD4^FITC, CD8^APC, CD8^PE, CD8^PERCP, CD8^FITC, B220^APC (Becton Dickinson, Cailf.) antibodies as indicated. The fluorophore on antibodies used to identify CD4^+ and CD8^+T cells was varied in some experiments to avoid overlap between emission spectra of the antibody-conjugated fluorochromes and fluorescent transport substrates. Cells were washed with DMEM and analysed by flow cytometry (CellQuest software—Becton Dickinson). Live cells were gated by eye on the basis of forward scatter and side scatter. […]
as §1, with “Baseline fluorescence was established for approximately one minute prior to addition of 150 μM (unless otherwise stated) 2′-3′-O-(4-benzoylbenzoyl)-adenosine 5′-triphosphate (BzATP, Sigma).” left out, “Continuous line graphs of changes in annexin V binding and fluorochrome uptake were plotted using FCSPress software (FCSPress.com, Cambridge, UK).” left out

P-gp [12] = assay: Annexin V trapping of PS after brief BzATP stimulation, BODIPY-taxol uptake in mdr1a/b-deficient and parental lymphocytes; format: cell-based, mouse; conditions: BzATP 45 seconds, washed, annexin V for 30 minutes to trap PS in the outer leaflet
Experimental: In this example, the inventors compared the uptake of BODIPY-taxol by parental and mdr1a/b-deficient lymphocytes, briefly stimulated with BzATP either in the continuous presence of annexin V to ‘trap’ PS in the outer leaflet, or with annexin V added only shortly before acquisition. The results are shown in FIGS. 4A-D. The experiments were performed as described below. Lymphocytes from mdr1a/b-deficient or parental mice (mdr1a/b^+/+) were labelled with anti-CD8^PE and anti-CD8^CY antibodies, respectively (to discriminate between CD8^+ cells from each mouse during subsequent analysis). […] BODIPY-taxol uptake was then measured by real-time flow cytometry. Reduced BT uptake indicates enhanced P-gp activity; increased annexin^CY5 binding indicates increased PS translocation from the inner to outer leaflet of the membrane. […] As PS exposure in samples stained with annexin V for four minutes immediately following stimulation (not shown) was equivalent to that in cells incubated for 30 minutes, PS trapping by annexin V appeared to be effectively complete.

Row | Molecule | toxicity [1] | rate of uptake of BODIPY-taxol [2] | BODIPY-taxol uptake (P-gp inhibition) (P-gp [3]) | BT uptake following BzATP treatment (P-gp [4]) | P-gp activity (BT accumulation) (P-gp [5]) | P-gp activity (uptake of Rh123) (P-gp [6]) | PS translocation (P2X7 receptor [7]) | PS translocation (P2X7 receptor [8]) | uptake of propidium ions [9] | uptake of mitoxantrone [10] | rate of uptake of BODIPY-taxol (P2X7-HEK 293 cells) | PS translocation (annexin V binding) (P2X7 receptor [11]; 150 μM BzATP, CD4+ T cells, CD8+ T cells and B cells) | PS translocation (P2X7 receptor [11]; mdr1a/b-deficient lymphocytes) | restoration of P-gp activity (P-gp [12])
1 | 2′-3′-O-(4-benzoylbenzoyl)-adenosine 5′-triphosphate [BzATP] | non-toxic | increased the rate of uptake | increased BODIPY-taxol uptake | rapidly reached equivalence in the mdr-deficient and wild type cells | did not inhibit P-gp activity and thus did not increase BT accumulation | order of responsiveness was CD4^+>CD8^+>>B cells | neither induced PS translocation | induced PS translocation | did not result in an increased uptake of propidium ions | markedly increased uptake of mitoxantrone | increased the rate of uptake | stimulated PS translocation with the order of responsiveness CD4^+ cells>CD8^+ T cells>>B cells | induced PS translocation | 
2 | annexin V: substance which binds to phosphatidylserine and retains it in the outer leaflet (protein, UniProt P08758 2-320, looked up) Annexin A5: AQVLRGTVTDFPGFDERADAETLRKAMKGLGTDEESILTLLTSRSNAQRQEISAAFKTLFGRDLLDDLKSELTGKFEKLIVALMKPSRLYDAYELKHALKGAGTNEKVLTEIIASRTPEELRAIKQVYEEEYGSSLEDDVVGDTSGYYQRMLVVLLQANRDPDAGIDEAQVEQDAQALFQAGELKWGTDEEKFITIFGTRSVSHLRKVFDKYMTISGFQIEETIDRETSGNLEQLLLAVVKSIRSIPAYLAETLYYAMKGAGTDDHTLIRVMVSRSEIDLFNIRKEFRKNFATSLYSMIKGDTSGDYKKALLLLCGEDD |  |  |  |  |  |  |  |  |  |  |  |  |  | prevents the restoration of P-gp activity
